# Experimental data from ChEMBL document CHEMBL1201862, “PubChem BioAssay data set” (2004).
#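 Following 48 hours of exposure in 96-well plates, responses at five concentrations were used to interpolate endpoints linearly. The concentration for 50% growth inhibition is given as GI50.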 Activity calls are given as the source filed them. Rule as the data show it: active = GI50 up to about 1.1 µM and inactive = higher.
# Experiments:
# Test in all cases: DTP human tumour cell line panel, 48 h
# NCI-H460 = tested on: NCI-H460
# CAKI-1 = tested on: CAKI-1
# SK-MEL-2 = tested on: SK-MEL-2
# MDA-N = tested on: MDA-N
# SK-MEL-28 = tested on: SK-MEL-28
# LOX IMVI = tested on: LOX IMVI
# OVCAR-8 = tested on: OVCAR-8
# HCC 2998 = tested on: HCC 2998
# NCI/ADR-RES = tested on: NCI/ADR-RES
# HOP-62 = tested on: HOP-62
# SK-MEL-5 = tested on: SK-MEL-5
# BT-549 = tested on: BT-549
# SF-295 = tested on: SF-295
# NCI-H226 = tested on: NCI-H226
# UACC-62 = tested on: UACC-62
# Malme-3M = tested on: Malme-3M
# UO-31 = tested on: UO-31
# HT-29 = tested on: HT-29
# TK-10 = tested on: TK-10
# HL-60 = tested on: HL-60
# K562 = tested on: K562
# MCF7 = tested on: MCF7
# HOP-92 = tested on: HOP-92
# IGROV-1 = tested on: IGROV-1
# SNB-75 = tested on: SNB-75
# CCRF-CEM = tested on: CCRF-CEM
# SF-539 = tested on: SF-539
# SNB-19 = tested on: SNB-19
# Hs-578T = tested on: Hs-578T
# U-251 = tested on: U-251
# SK-OV-3 = tested on: SK-OV-3
# NCI-H23 = tested on: NCI-H23
# ACHN = tested on: ACHN
# SW-620 = tested on: SW-620
# NCI-H522 = tested on: NCI-H522
# SF-268 = tested on: SF-268
# EKVX = tested on: EKVX
# MDA-MB-231 = tested on: MDA-MB-231
# SN12C = tested on: SN12C
# PC-3 = tested on: PC-3
# A498 = tested on: A498
# UACC-257 = tested on: UACC-257
# HCT-116 = tested on: HCT-116
# OVCAR-5 = tested on: OVCAR-5
# OVCAR-3 = tested on: OVCAR-3
# DU-145 = tested on: DU-145
# COLO 205 = tested on: COLO 205
# MDA-MB-435 = tested on: MDA-MB-435
# RXF 393 = tested on: RXF 393
# 786-0 = tested on: 786-0
# A549 = tested on: A549
# OVCAR-4 = tested on: OVCAR-4
# HCT-15 = tested on: HCT-15
# M14 = tested on: M14
compound,measurement,setting,value
Cc1ccc(-n2cc(-c3ccc(Cl)cc3)c3c(=N)n(N)cnc32)cc1,GI50,NCI-H460,10.3 µM (inactive)
same,GI50,CAKI-1,18.5 µM (inactive)
same,GI50,SK-MEL-2,13.6 µM (inactive)
same,GI50,MDA-N,11.5 µM (inactive)
same,GI50,SK-MEL-28,13.8 µM (inactive)
same,GI50,LOX IMVI,14.7 µM (inactive)
same,GI50,OVCAR-8,14.8 µM (inactive)
same,GI50,HCC 2998,6.11 µM (inactive)
same,GI50,NCI/ADR-RES,13.1 µM (inactive)
same,GI50,HOP-62,14.2 µM (inactive)
same,GI50,SK-MEL-5,7.43 µM (inactive)
same,GI50,BT-549,16.9 µM (inactive)
same,GI50,SF-295,15.4 µM (inactive)
same,GI50,NCI-H226,21 µM (inactive)
same,GI50,UACC-62,13.2 µM (inactive)
same,GI50,Malme-3M,13.2 µM (inactive)
same,GI50,UO-31,11.7 µM (inactive)
same,GI50,HT-29,8.24 µM (inactive)
same,GI50,TK-10,15.3 µM (inactive)
same,GI50,HL-60,7.83 µM (inactive)
same,GI50,K562,6.46 µM (inactive)
same,GI50,MCF7,11 µM (inactive)
same,GI50,HOP-92,9.95 µM (inactive)
same,GI50,IGROV-1,12 µM (inactive)
same,GI50,SNB-75,12.6 µM (inactive)
same,GI50,CCRF-CEM,11.3 µM (inactive)
same,GI50,SF-539,13.4 µM (inactive)
same,GI50,SNB-19,11.8 µM (inactive)
same,GI50,Hs-578T,3.71 µM (inactive)
same,GI50,U-251,10.5 µM (inactive)
same,GI50,SK-OV-3,17.4 µM (inactive)
same,GI50,NCI-H23,16.1 µM (inactive)
same,GI50,ACHN,16.2 µM (inactive)
same,GI50,SW-620,12.4 µM (inactive)
same,GI50,NCI-H522,14.5 µM (inactive)
same,GI50,SF-268,12.7 µM (inactive)
same,GI50,EKVX,16.4 µM (inactive)
same,GI50,MDA-MB-231,12.6 µM (inactive)
same,GI50,SN12C,16 µM (inactive)
same,GI50,PC-3,6.41 µM (inactive)
same,GI50,A498,15.9 µM (inactive)
same,GI50,UACC-257,9.93 µM (inactive)
same,GI50,HCT-116,7.8 µM (inactive)
same,GI50,OVCAR-5,14.7 µM (inactive)
same,GI50,OVCAR-3,13.5 µM (inactive)
same,GI50,DU-145,17.5 µM (inactive)
same,GI50,COLO 205,8.2 µM (inactive)
same,GI50,MDA-MB-435,11.1 µM (inactive)
same,GI50,RXF 393,4.69 µM (inactive)
same,GI50,786-0,11.9 µM (inactive)
same,GI50,A549,15.1 µM (inactive)
same,GI50,OVCAR-4,10.5 µM (inactive)
same,GI50,HCT-15,15.6 µM
same,GI50,M14,5.75 µM (inactive)
